Read-outs that look alike come from different tables or passages of the source. Non-standard residues stand in square brackets, D forms with d. Residues, ends and D or L forms follow the SMILES beside them. *: point of attachment. Ala(4-thiazolyl) = N[C@@H](Cc1cscn1)C(=O)O; Bip = N[C@@H](Cc1ccc(-c2ccccc2)cc1)C(=O)O; Phe(4-F) = N[C@@H](Cc1ccc(F)cc1)C(=O)O; 2Nal = N[C@@H](Cc1ccc2ccccc2c1)C(=O)O; Met(O2) = CS(=O)(=O)CC[C@H](N)C(=O)O; NH(4-Me-benzyl) = Cc1ccc(CN*)cc1; NMeF = CN[C@@H](Cc1ccccc1)C(=O)O; NMeE = CN[C@@H](CCC(=O)O)C(=O)O; pS = N[C@@H](COP(=O)(O)O)C(=O)O; β3hF = N[C@H](CC(=O)O)Cc1ccccc1; 3Thi = N[C@@H](Cc1ccsc1)C(=O)O; Cit = NC(=O)NCCC[C@H](N)C(=O)O; aThr = C[C@H](O)[C@H](N)C(=O)O; Pip = O=C(O)[C@@H]1CCCCN1; Ac6c = NC1(C(=O)O)CCCCC1; Piperidide = C1CCN(*)CC1; Acryloyl = C=CC(=O)*; NHtBu = CC(C)(C)N*; ClAc = O=C(CCl)*; X1 = O=C(C1CO1)*
Target: Pin1 (GST-Pin1) (Homo sapiens, UniProt Q13526)
Sequence (Q13526 whole entry): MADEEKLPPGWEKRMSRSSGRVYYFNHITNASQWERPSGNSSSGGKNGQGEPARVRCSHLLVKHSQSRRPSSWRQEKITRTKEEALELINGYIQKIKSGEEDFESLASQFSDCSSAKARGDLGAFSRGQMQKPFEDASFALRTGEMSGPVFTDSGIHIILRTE
Assay: Fluorescence polarization (FP) assay, binding to Pin1
Details: competition with fluorescein-labeled peptide probe, 12 hours pre-incubation at 4° C., Kenakin Ki equation

Compound | Ki (read-out: Ki, μM (FP Assay)) | Ki (Ki, μM (FP Assay))
N=C(N)NCCC[C@H](NC(=O)[C@H](Cc1ccc(-c2ccccc2)cc1)NC(=O)[C@@H]1CCCCN1C(=O)[C@H](CCC(=O)O)NC(=O)CCl)C(N)=O [Compound 2b-9, (S)-5-((S)-2-(((S)-3-([1,1′-Biphenyl]-4-yl)-1-(((S)-1-amino-5-guanidino-1-oxopentan-2-yl)amino)-1-oxopropan-2-yl)carbamoyl)piperidin-1-yl)-4-(2-chloroacetamido)-5-oxopentanoic acid] (ClAc-E[Pip][Bip]R-NH2) | 0.19 µM | –
NC(=O)CC[C@H](NC(=O)[C@H](Cc1ccc2ccccc2c1)NC(=O)[C@@H]1CCCCN1C(=O)[C@H](CC(=O)O)NC(=O)CCl)C(N)=O [Compound 2-2, (S)-3-(2-Chloroacetamido)-4-((S)-2-(((S)-1-(((S)-1,5-diamino-1,5-dioxopentan-2-yl)amino)-3-(naphthalen-2-yl)-1-oxopropan-2-yl)carbamoyl)piperidin-1-yl)-4-oxobutanoic acid] (ClAc-D[Pip][2Nal]Q-NH2) | > 10 µM | –
NC(=O)CC[C@H](NC(=O)[C@H](Cc1ccc2ccccc2c1)NC(=O)[C@@H]1CCCCN1C(=O)[C@@H](CCC(=O)O)NC(=O)CCl)C(N)=O [Compound 2b-4, (R)-4-(2-Chloroacetamido)-5-((S)-2-(((S)-1-(((S)-1,5-diamino-1,5-dioxopentan-2-yl)amino)-3-(naphthalen-2-yl)-1-oxopropan-2-yl)carbamoyl)piperidin-1-yl)-5-oxopentanoic acid] (ClAc-[dE][Pip][2Nal]Q-NH2) | > 10 µM | –
C=CC(=O)N[C@@H](CCC(=O)O)C(=O)N1CCCC[C@H]1C(=O)N[C@@H](Cc1ccc2ccccc2c1)C(=O)N[C@@H](CCC(N)=O)C(N)=O [Compound 2b-1, (S)-4-Acrylamido-5-((S)-2-(((S)-1-(((S)-1,5-diamino-1,5-dioxopentan-2-yl)amino)-3-(naphthalen-2-yl)-1-oxopropan-2-yl)carbamoyl)piperidin-1-yl)-5-oxopentanoic acid] (Acryloyl-E[Pip][2Nal]Q-NH2) | > 10 µM | –
CN(C(=O)CCl)[C@@H](Cc1ccccc1)C(=O)N1CCCC[C@H]1C(=O)N[C@@H](Cc1c[nH]c2ccccc12)C(=O)N[C@@H](Cc1ccc(F)cc1)C(=O)N1CCCCC1 [Compound 11-43, (S)-1-(N-(2-Chloroacetyl)-N-methyl-L-phenylalanyl)-N—((S)-1-(((S)-3-(4-fluorophenyl)-1-oxo-1-(piperidin-1-yl)propan-2-yl)amino)-3-(1H-indol-3-yl)-1-oxopropan-2-yl)piperidine-2-carboxamide] (ClAc-[NMeF][Pip]W[Phe(4-F)]-Piperidide) | 0.172 µM | –
NC(=O)NCCC[C@H](NC(=O)[C@H](Cc1ccc2ccccc2c1)NC(=O)C1(NC(=O)[C@H](CCC(=O)O)NC(=O)CCl)CCCCC1)C(N)=O [Compound 2-10, (S)-5-((1-(((S)-1-(((S)-1-Amino-1-oxo-5-ureidopentan-2-yl)amino)-3-(naphthalen-2-yl)-1-oxopropan-2-yl)carbamoyl)cyclohexyl)amino)-4-(2-chloroacetamido)-5-oxopentanoic acid] (ClAc-E[Ac6c][2Nal][Cit]-NH2) | – | > 10 µM
C[C@H](O)[C@H](NC(=O)CCl)C(=O)N1CCCC[C@H]1C(=O)N[C@@H](Cc1c[nH]c2ccccc12)C(=O)N[C@@H](CCCNC(N)=O)C(N)=O [Compound 2-20, (S)—N—((S)-1-(((S)-1-Amino-1-oxo-5-ureidopentan-2-yl)amino)-3-(1H-indol-3-yl)-1-oxopropan-2-yl)-1-((2-chloroacetyl)-L-allothreonyl)piperidine-2-carboxamide] (ClAc-[aThr][Pip]W[Cit]-NH2) | 0.122 µM | –
Cc1ccc(CNC(=O)[C@H](CCCNC(N)=O)NC(=O)[C@H](Cc2c[nH]c3ccccc23)NC(=O)[C@@H]2CCCCN2C(=O)[C@H](CCS(C)(=O)=O)NC(=O)CCl)cc1 [Compound 11-11, (S)—N—((S)-3-(1H-Indol-3-yl)-1-(((S)-1-((4-methylbenzyl)amino)-1-oxo-5-ureidopentan-2-yl)amino)-1-oxopropan-2-yl)-1-((S)-2-(2-chloroacetamido)-4-(methylsulfonyl)butanoyl)piperidine-2-carboxamide] (ClAc-[Met(O2)][Pip]W[Cit]-{NH(4-Me-benzyl)}) | 0.17 µM | –
COC(=O)CC[C@H](NC(=O)CCl)C(=O)N1CCCC[C@H]1C(=O)N[C@@H](Cc1ccc2ccccc2c1)C(=O)N[C@@H](CCCNC(N)=O)C(N)=O [Compound 2-18, Methyl (S)-5-((S)-2-(((S)-1-(((S)-1-amino-1-oxo-5-ureidopentan-2-yl)amino)-3-(naphthalen-2-yl)-1-oxopropan-2-yl)carbamoyl)piperidin-1-yl)-4-(2-chloroacetamido)-5-oxopentanoate] (ClAc-E(OMe)[Pip][2Nal][Cit]-NH2) | 0.14 µM | –
CC(C)(C)NC(=O)[C@H](CCCNC(N)=O)NC(=O)[C@H](Cc1c[nH]c2ccccc12)NC(=O)[C@@H]1CCCCN1C(=O)[C@H](Cc1ccccc1)NC(=O)CCl [Compound 11-31, (S)—N—((S)-1-(((S)-1-(tert-Butylamino)-1-oxo-5-ureidopentan-2-yl)amino)-3-(1H-indol-3-yl)-1-oxopropan-2-yl)-1-((2-chloroacetyl)-L-phenylalanyl)piperidine-2-carboxamide] (ClAc-F[Pip]W[Cit]-NHtBu) | 0.023 µM | –
COC(=O)CC[C@H](NC(=O)CCl)C(=O)N1CCCC[C@H]1C(=O)N[C@@H](Cc1c[nH]c2ccccc12)C(=O)N[C@@H](Cc1ccsc1)C(=O)NCc1ccc(C)cc1 [Compound 11-29, Methyl (S)-5-((S)-2-(((S)-3-(1H-indol-3-yl)-1-(((S)-1-((4-methylbenzyl)amino)-1-oxo-3-(thiophen-3-yl)propan-2-yl)amino)-1-oxopropan-2-yl)carbamoyl)piperidin-1-yl)-4-(2-chloroacetamido)-5-oxopentanoate] (ClAc-E(OMe)[Pip]W[3Thi]-{NH(4-Me-benzyl)}) | – | 1.01 µM
C=CC(=O)N[C@@H](CCC(=O)O)C(=O)N1CCCC[C@H]1C(=O)N[C@@H](Cc1ccc2ccccc2c1)C(=O)N[C@@H](CCCNC(=N)N)C(N)=O [Compound 2b-16, (S)-4-Acrylamido-5-((S)-2-(((S)-1-(((S)-1-amino-5-guanidino-1-oxopentan-2-yl)amino)-3-(naphthalen-2-yl)-1-oxopropan-2-yl)carbamoyl)piperidin-1-yl)-5-oxopentanoic acid] (Acryloyl-E[Pip][2Nal]R-NH2) | > 10 µM | –
N=C(N)NCCC[C@H](NC(=O)C[C@H](Cc1ccccc1)NC(=O)[C@@H]1CCCCN1C(=O)[C@H](CCC(=O)O)NC(=O)CCl)C(N)=O [Compound 2b-15, (S)-5-((S)-2-(((S)-4-(((S)-1-Amino-5-guanidino-1-oxopentan-2-yl)amino)-4-oxo-1-phenylbutan-2-yl)carbamoyl)piperidin-1-yl)-4-(2-chloroacetamido)-5-oxopentanoic acid] (ClAc-E[Pip][β3hF]R-NH2) | > 10 µM | –
Cc1ccc(CNC(=O)[C@H](Cc2cscn2)NC(=O)[C@H](Cc2c[nH]c3ccccc23)NC(=O)[C@@H]2CCCCN2C(=O)[C@H](Cc2ccccc2)NC(=O)CCl)cc1 [Compound 11-32, (S)—N—((S)-3-(1H-Indol-3-yl)-1-(((S)-1-((4-methylbenzyl)amino)-1-oxo-3-(thiazol-4-yl)propan-2-yl)amino)-1-oxopropan-2-yl)-1-((2-chloroacetyl)-L-phenylalanyl)piperidine-2-carboxamide] (ClAc-F[Pip]W[Ala(4-thiazolyl)]-{NH(4-Me-benzyl)}) | 0.121 µM | –
CC(=O)N[C@@H](CCC(=O)O)C(=O)N1CCCC[C@H]1C(=O)N[C@@H](Cc1c[nH]c2ccccc12)C(=O)N[C@@H](CCCNC(N)=O)C(N)=O [Compound 2-33, (S)-4-Acetamido-5-((S)-2-(((S)-1-(((S)-1-amino-1-oxo-5-ureidopentan-2-yl)amino)-3-(1H-indol-3-yl)-1-oxopropan-2-yl)carbamoyl)piperidin-1-yl)-5-oxopentanoic acid] (Ac-E[Pip]W[Cit]-NH2) | > 10 µM | –
C=CC(=O)N[C@@H](Cc1ccccc1)C(=O)N1CCCC[C@H]1C(=O)N[C@@H](Cc1c[nH]c2ccccc12)C(=O)N[C@@H](CCCNC(N)=O)C(=O)NCc1ccc(C)cc1 [Compound 11-35, (S)—N—((S)-3-(1H-indol-3-yl)-1-(((S)-1-((4-methylbenzyl)amino)-1-oxo-5-ureidopentan-2-yl)amino)-1-oxopropan-2-yl)-1-(acryloyl-L-phenylalanyl)piperidine-2-carboxamide] (Acryloyl-F[Pip]W[Cit]-{NH(4-Me-benzyl)}) | > 10 µM | –
COC(=O)CC[C@H](NC(=O)C1CO1)C(=O)N1CCCC[C@H]1C(=O)N[C@@H](Cc1c[nH]c2ccccc12)C(=O)N[C@@H](CCCNC(N)=O)C(N)=O (stereo partly drawn) [Compound 3, Methyl (4S)-5-((S)-2-(((S)-1-(((S)-1-amino-1-oxo-5-ureidopentan-2-yl)amino)-3-(1H-indol-3-yl)-1-oxopropan-2-yl)carbamoyl)piperidin-1-yl)-4-(oxirane-2-carboxamido)-5-oxopentanoate] (X1-E(OMe)[Pip]W[Cit]-NH2) | 4.17 µM | –
NC(=O)NCCC[C@H](NC(=O)[C@H](Cc1c[nH]c2ccccc12)NC(=O)[C@@H]1CCCCN1C(=O)[C@H](COP(=O)(O)O)NC(=O)CCl)C(N)=O [Compound 2-21, (S)-3-((S)-2-(((S)-1-(((S)-1-Amino-1-oxo-5-ureidopentan-2-yl)amino)-3-(1H-indol-3-yl)-1-oxopropan-2-yl)carbamoyl)piperidin-1-yl)-2-(2-chloroacetamido)-3-oxopropyl dihydrogen phosphate] (ClAc-[pS][Pip]W[Cit]-NH2) | 0.004 µM | –
CN(C(=O)CCl)[C@@H](CCC(=O)O)C(=O)N1CCCC[C@H]1C(=O)N[C@@H](Cc1c[nH]c2ccccc12)C(=O)N[C@@H](Cc1ccc(O)cc1)C(N)=O [Compound 2-31, (S)-5-((S)-2-(((S)-1-(((S)-1-Amino-3-(4-hydroxyphenyl)-1-oxopropan-2-yl)amino)-3-(1H-indol-3-yl)-1-oxopropan-2-yl)carbamoyl)piperidin-1-yl)-4-(2-chloro-N-methylacetamido)-5-oxopentanoic acid] (ClAc-[NMeE][Pip]WY-NH2) | 0.07 µM | –

Source: patent US20210238225A1, “PEPTIDOMIMETIC INHIBITORS OF THE PEPTIDYL-PROLYL CIS/TRANS ISOMERASE (PIN1)” (DANA-FARBER CANCER INSTITUTE, INC., priority 2018, published 2021)
